Where a name gives a salt, the structure may show the parent alone. Read-outs that look alike come from different tables or passages of the source.
Tests used:
integrase = integrase (Human immunodeficiency virus type 1 group M subtype B, UniProt P04585); assay: Integrase inhibition assay (microtiter plate strand transfer, substrate DNA/target DNA, anti-digoxigenin ELISA); assay type: biochemical; details: concentration of the compound at percent inhibition 50%, 30° C. for 1 hour, OD at 405 nm
Experimental: The inhibitory activities against integrase of the compounds in the present invention have been determined by the assay described below.
(1) Preparation of DNA Solutions.
Substrate DNA and target DNA, which sequences were indicated below, were synthesized by Amersham Pharmacia Biotech and dissolved in KTE buffer (composition: 100 mM KCl, 1 mM EDTA, 10 mM Tris-HCl (pH 7.6)) at concentration of 2 pmol/μl and 0.5 pmol/μl, respectively. The DNA solutions were annealed with each complement by slowly cooling after heating.
(2) Calculations of the Percent Inhibitions (the IC50 Values of Test Compounds)
Streptavidin, obtained from Vector Laboratories, was dissolved in 0.1 M carbonate buffer (composition: 90 mM Na2CO3, 10 mM NaHCO3) at concentration of 40 µg/ml. After coating each well of microtiter plates (obtained from NUNC) with 50 μL of the above solution at 4° C. over night, each well was washed twice with PBS (composition: 13.7 mM NaCl, 0.27 mM KCl, 0.43 mM Na2HPO4, 0.14 mM KH2PO4) and blocked with 300 μl of 1% skim milk in PBS for 30 min. Additionally, each well was washed twice with PBS and added 50 μl of substrate DNA solution (0.04 pmol/μl) diluted to one fiftieth with NTE buffer (composition: 1M NaCl, 10 mM Tris-HCl (pH8.0), 1 mM EDTA). The microtiter plates were kept at room temperature for 30 min. Then, each well was washed twice with PBS and once with H2O.
Subsequently, in the each well prepared above were added 45 μl of the reaction buffer prepared from 12 μl of the buffer (composition: 150 mM MOPS (pH 7.2), 75 mM MnCl2, 50 mM 2-mercaptoethanol, 25% glycerol, 500 μg/ml bovine serum albumin-fraction V), 1 μl of target DNA (5 pmol/μl), and 32 μl of the distilled water. Additionally, 6 μl of either a test compound in DMSO or DMSO for positive control (PC) was mixed with the above reaction buffer, then 9 μl of an integrase solution (30 pmol) was added and mixed well. In the well of negative control (NC) was added 9 μl of the integrase dilution buffer (composition: Hepes (pH7.6), 400 mM potassium glutamate, 1 mM EDTA, 0.1% NP-40, 20% glycerol, 1 mM DTT, 4M urea).
The microtiter plates were incubated at 30° C. for 1 hour. The reaction solution was removed and each well was washed twice with PBS. Subsequently, each well of the microtiter plates was filled with 100 μl of anti-digoxigenin antibody labeled with alkaline phosphatase (Sheep Fab fragment: obtained from Boehringer) and incubated at 30° C. for 1 hour. Then, each well was washed twice with 0.05% Tween20 in PBS and once with PBS. Next, 150 μl of the Alkaline phosphatase reaction buffer (composition: 10 mM p-Nitrophenylphosphate (obtained from Vector Laboratories), 5 mM MgCl2, 100 mM NaCl, 100 mM Tris-HCl (pH 9.5)) was added in each well. The microtiter plates were incubated at 30° C. for 2 hours. The optical density (OD) at 405 nm of each well was measured and the percent inhibition was determined by the following expression. The percent inhibition (%)=100[1−{(C abs.−NC abs.)/(PC abs.−NC abs.)}] • C abs.; the OD of the well of the • NC abs.: the OD of the negative control (NC) • PC abs.: the OD of the positive control (PC)
When the percent inhibition (%) is X % at the concentration of x μg/ml and the percent inhibition (%) is Y % at the concentration of y μg/ml, one of which is more than 50% and the other is less than 50%, IC50 can be determined by the following expression. IC50(μg/ml)=x−{(X−50),(x−y)/(X−Y)}
Compound No. in the Table 1 is the same as compound No. of the above example.

## CN1CC(C(=O)c2coc(Cc3ccc(F)cc3)c2)=C(O)C1=O
other
  melting point: 158 to 160 °C

## COc1ccccc1Cc1ccc(C(=O)C2=C(O)C(=O)N(C(C)C)C2)o1
other
  melting point: 123 to 124 °C

## CC(C)N1CC(C(=O)c2ccc(Cc3cccc4ccccc34)o2)=C(O)C1=O
other
  melting point: 165 to 166.5 °C

## CC(C)Oc1cccc(Cc2ccc(C(=O)C3=C(O)C(=O)N(C(C)C)C3)o2)c1
other
  melting point: 98 to 99 °C

## COc1cc(F)ccc1Cc1ccc(C(=O)C2=C(O)C(=O)N(C(C)C)C2)o1
other
  melting point: 112 to 113 °C

## CC(C)Oc1cc(F)ccc1Cc1ccc(C(=O)C2=C(O)C(=O)N(C(C)C)C2)o1
other
  melting point: 98 to 100 °C

## CC(C)N1CC(C(=O)c2ccc(Cc3ccc(F)cc3C(N)=O)o2)=C(O)C1=O
other
  melting point: 215 to 218 °C

## CCN1CC(C(=O)c2oc(S(C)(=O)=O)cc2Cc2ccc(F)cc2)=C(O)C1=O
other
  melting point: 154 to 157 °C

## COCCN1CC(C(=O)c2ccc(Cc3ccc(F)cc3)o2)=C(O)C1=O
other
  melting point: 105 to 106 °C

## CN1CC(C(=O)c2oc(C3CCS(=O)(=O)CC3)cc2Cc2ccc(F)cc2)=C(O)C1=O
other
  melting point: 200 to 203 °C

## O=C(C1=C(O)C(=O)N(C2CCCC2)C1)c1ccc(Cc2ccc(F)cc2)o1
other
  melting point: 157 to 159 °C

## CC(O)CN1CC(C(=O)c2ccc(Cc3ccc(F)cc3)o2)=C(O)C1=O (stereo not shown)
other
  melting point: 172 °C

## O=C1NCC(C(=O)c2ccc(Cc3ccc(F)cc3)o2)=C1O
other
  melting point: 178 to 179 °C

## CN1CC(C(=O)c2ncc(Cc3ccc(F)cc3)s2)=C(O)C1=O
other
  melting point: 230 to 231 °C

## CC(C)N1CC(C(=O)c2occc2Cc2ccc(F)cc2)=C(O)C1=O
other
  melting point: 197 to 199 °C

## Cc1oc(C(=O)C2=C(O)C(=O)N(C)C2)c(Cc2ccc(F)cc2)c1C
other
  melting point: 202 to 204 °C

## CCN1CC(C(=O)c2oc(C(C)(C)C)cc2Cc2ccc(F)cc2)=C(O)C1=O
other
  melting point: 141 to 143 °C

## CC(C)N1CC(C(=O)c2oc(C(C)(C)C)cc2Cc2ccc(F)cc2)=C(O)C1=O
other
  melting point: 146 to 147 °C

## CN1CC(C(=O)c2sccc2Cc2ccc(F)cc2)=C(O)C1=O
other
  melting point: 181 to 183 °C

## CC(C)N1CC(C(=O)c2c[nH]c(Cc3ccc(F)cc3)n2)=C(O)C1=O
other
  melting point: 220 °C

## CN1CC(C(=O)c2cccn2Cc2ccc(F)cc2)=C(O)C1=O
other
  melting point: 150 to 151 °C

## CC(C)N1CC(c2ncnc(OCc3ccc(F)cc3)n2)=C(O)C1=O
other
  melting point: 105 to 106 °C

## CC(C)N1CC(c2ncc(CCc3ccc(F)cc3)s2)=C(O)C1=O
other
  melting point: 208 to 210 °C

## CC(C)N1CC(c2cc(OCc3ccccc3)ncn2)=C(O)C1=O
other
  melting point: 177 to 178 °C

## COc1ccc(CN2CC(c3ccc(Cc4ccc(F)cc4)cn3)=C(O)C2=O)cc1
other
  melting point: 164 to 166 °C

## CN1CC(c2cc(CCc3ccc(F)cc3)ccn2)=C(O)C1=O
other
  melting point: 167 to 168 °C

## CC(C)N1CC(c2cc(CCc3ccc(F)cc3)ccn2)=C(O)C1=O
other
  melting point: 167 to 168 °C

## CC(C)N1CC(c2ccc([S+]([O-])c3ccc(F)cc3)cn2)=C(O)C1=O (stereo not shown)
other
  melting point: 205 to 207 °C

## O=C1C(O)=C(c2cc(CCc3ccccc3)ncn2)CN1Cc1ccccc1
other
  melting point: 222 to 223 °C

## CC(C)(C)N1CC(c2cc(CCc3ccccc3)ncn2)=C(O)C1=O
other
  melting point: 199 to 200 °C

## CC(C)N1CC(c2nccc(OCc3ccccc3)n2)=C(O)C1=O
other
  melting point: 155 to 157 °C

## CN1CC(c2nccc(OCc3ccc(F)cc3)n2)=C(O)C1=O
other
  melting point: 227 to 230 °C

## CN1CC(c2ncc(CCc3ccc(F)cc3)cn2)=C(O)C1=O
other
  melting point: 158 to 160 °C

## CC(C)N1CC(c2cc(CCc3ccccc3)cnn2)=C(O)C1=O
other
  melting point: 182 to 184 °C

## O=c1c(O)c(-c2ncc(Oc3ccccc3)cn2)oc2ccccc12
other
  melting point: 212 °C

## CN(C)C(=O)c1cc(OCc2ccc(F)cc2)c2c(=O)c(O)c(-c3ncnn3C)oc2c1
other
  melting point: 227 to 229 °C

## COC(=O)c1cc(OCc2ccc(F)cc2)c2c(=O)c(O)c(-c3ncnn3C)oc2c1
other
  melting point: 253 to 255 °C

## Cn1ncnc1-c1oc2c(Br)ccc(OCc3ccc(F)cc3)c2c(=O)c1O
other
  melting point: 220 to 223 °C

## Cn1ncnc1-c1oc2cc(C(N)=O)cc(OCc3ccc(F)cc3)c2c(=O)c1O
other
  melting point: 257 to 258 °C

## COCNC(=O)c1cc(OCc2ccc(F)cc2)c2c(=O)c(O)c(-c3ncnn3C)oc2c1
other
  melting point: 220 to 221 °C

## CN(C)C(=O)c1ccc(OCc2ccc(F)cc2)c2c(=O)c(O)c(-c3ncnn3C)oc12
other
  melting point: 246 to 247 °C

## Cn1ncnc1-c1oc2cccc(OCCc3ccc(F)cc3)c2c(=O)c1O
other
  melting point: 215 to 217 °C

## COCCNC(=O)c1cc(=O)c(O)c(C(=O)c2ccc(Cc3ccc(F)cc3)o2)o1
other
  melting point: 177 to 179 °C

## COCn1ccc(C(=O)c2ccc(Cc3ccc(F)cc3)o2)c(O)c1=O
other
  melting point: 128 to 130 °C

## 3-hydroxy-1-isopropyl-4-(6-phenethylpyrimidine-4-yl)-1,5-dihydropyrrole-2-one [Compound H-7]
integrase
  IC50: 0.68 µg/mL

## CN1CC(C(=O)c2ncoc2Cc2ccc(F)cc2)=C(O)C1=O (as salt: salt)
other
  melting point: 257 °C

## CC(C)N1CC(C(=O)c2ccc(Cc3ccc(F)cc3)o2)=C(O)C1=O [Compound A-7, 4-[5-(4-Fluorobenzyl)furan-2-carbonyl]-3-hydroxyl-1-isopropyl-1,5-dihydropyrrole-2-one]
integrase; read-out: IC50 (converted)
  IC50: 2210 nM
other
  melting point: 155 to 157 °C

## CN1CC(C(=O)c2cccc(Cc3ccc(F)cc3)c2)=C(O)C1=O [Compound A-12-a, 4-[3-(4-Fluorobenzyl)benzoyl]-3-hydroxy-1-methyl-1,5-dihydropyrrole-2-one]
integrase; read-out: IC50 (converted)
  IC50: 1010 nM
other
  melting point: 135 to 137 °C

## O=C(C1=C(O)C(=O)N(C2CC2)C1)c1ccc(Cc2ccc(F)cc2)o1 [Compound A-17, 1-Cyclopropyl-4-[5-(4-fluorobenzyl)furan-2-carbonyl]-3-hydroxy-1,5-dihydropyrrole-2-one]
integrase; read-out: IC50 (converted)
  IC50: 2340 nM
other
  melting point: 158 to 159 °C

## CCCCN1CC(C(=O)c2ccc(Cc3ccc(F)cc3)o2)=C(O)C1=O [Compound A-17-c, 1-Butyl-4-[5-(4-fluorobenzyl)furan-2-carbonyl]-3-hydroxy-1,5-dihydropyrrole-2-one]
integrase; read-out: IC50 (converted)
  IC50: 2630 nM

## CN1CC(c2cc(OCc3ccc(F)cc3)ncn2)=C(O)C1=O [Compound B-12-b, 4-[6-(4-Fluorobenzyloxyl)pyrimidine-4-yl]-3-hydroxy-1-methyl-1,5-dihydropyrrole-2-one]
integrase; read-out: IC50 (converted)
  IC50: 666 nM

## O=c1c(O)c(-c2nnc(Cc3ccc(F)cc3)o2)oc2ccccc12 [Compound C-26, 2-[5-(4-fluorobenzyl)-[1,3,4]-oxadiazole-2-yl]-3-hydroxy-4H-1-benzopyrane-4-one]
integrase; read-out: IC50 (converted)
  IC50: 1060 nM

## Cc1nc(=O)c(O)c(-c2ccc(Cc3ccc(F)cc3)cn2)[nH]1 [Compound G-7, 6-[5-(4-fluorobenzyl)pyridine-2-yl]-5-hydroxy-2-methyl-1H-pyrimidine-4-one]
integrase; read-out: IC50 (converted)
  IC50: 1540 nM

## CCN1CCC(C(=O)c2ccc(Cc3ccc(F)cc3)o2)=C(O)C1=O [Compound I-4, 1-ethyl-4-[5-(4-fluorobenzyl)furan-2-carbonyl]-3-hydroxy-5,6-dihydro-1H-pyridine-2-one]
integrase; read-out: IC50 (converted)
  IC50: 1460 nM

## O=C(c1ccc(Cc2ccc(F)cc2)o1)c1[nH]ccc(=O)c1O [Compound L-4, 2-[5-(4-fluorobenzyl)furan-2-carbonyl]-3-hydroxy-1H-pyridine-4-one]
integrase; read-out: IC50 (converted)
  IC50: 1560 nM

— patent publication US9572813B2, “Antiviral agent” (SHIONOGI & CO., LTD., priority 2001, dated 2017)
